Reference: PubChem BioAssay (NCI)
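Grown in 96-well plates, cells were treated for 48 hours with each compound at five concentrations. Insufficient inhibition: endpoint recorded as highest concentration tested. GI50 marks 50% less growth. TGI: concentration producing complete growth inhibition.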

Legend:
Test in all cases: NCI tumour cell line growth inhibition, 48 h
[1] = system: EKVX NSCLC
[2] = system: HCT-116 colon
[3] = system: HCT-15 colon
[4] = system: HT29 colon
[5] = system: M14 melanoma
[6] = system: NCI-H460 lung
[7] = system: NCI/ADR-RES ovarian
[8] = system: SK-MEL-2 melanoma
[9] = system: SW-620 colon
[10] = system: T-47D breast

Compound: C=C1C(=O)O[C@H]2[C@H]1CC/C(COC(=O)NCc1ccc(OC)cc1)=C\CC[C@@]1(C)O[C@@H]21
- GI50 [1]: 3.93 µM
- TGI [1]: 17.4 µM
- GI50 [2]: 0.471 µM
- TGI [2]: 1.02 µM
- GI50 [3]: 0.57 µM
- TGI [3]: 1.87 µM
- GI50 [4]: 0.835 µM
- TGI [4]: 2.78 µM
- GI50 [5]: 0.52 µM
- TGI [5]: 1.14 µM
- GI50 [6]: 3.16 µM
- TGI [6]: 18.2 µM
- GI50 [7]: 2.69 µM
- TGI [7]: 21.6 µM
- GI50 [8]: 3.04 µM
- TGI [8]: 10.4 µM
- GI50 [9]: 0.635 µM
- TGI [9]: 1.55 µM
- GI50 [10]: 0.757 µM
- TGI [10]: 2.91 µM

Compound: CCN1CCN(c2cc(C)nc(N(CCCNc3ccnc4cc(Cl)ccc34)Cc3ccc4c(c3)OCO4)n2)CC1
- GI50 [1]: 4.56 µM
- TGI [1]: > 100 µM
- GI50 [2]: 2.45 µM
- TGI [2]: 13.6 µM
- GI50 [3]: 2.24 µM
- TGI [3]: 8.42 µM
- GI50 [4]: 1.95 µM
- TGI [4]: 5.79 µM
- GI50 [5]: 1.89 µM
- TGI [5]: 3.5 µM
- GI50 [6]: 3.07 µM
- TGI [6]: 11.2 µM
- GI50 [7]: 3.22 µM
- TGI [7]: 58.5 µM
- GI50 [8]: 2.14 µM
- TGI [8]: 4.74 µM
- GI50 [9]: 2.81 µM
- TGI [9]: 12.5 µM
- GI50 [10]: 2.26 µM
- TGI [10]: 4.88 µM

Compound: NS(=O)(=O)c1ccc(N=Nc2c(O)[nH]c3ccc(C(=O)NCc4ccncc4)cc23)cc1
- GI50 [1]: > 25 µM
- TGI [1]: > 25 µM
- GI50 [2]: > 25 µM
- TGI [2]: > 25 µM
- GI50 [3]: > 25 µM
- TGI [3]: > 25 µM
- GI50 [4]: 24.6 µM
- TGI [4]: > 25 µM
- GI50 [5]: > 25 µM
- TGI [5]: > 25 µM
- GI50 [6]: > 25 µM
- TGI [6]: > 25 µM
- GI50 [7]: > 25 µM
- TGI [7]: > 25 µM
- GI50 [8]: > 25 µM
- TGI [8]: > 25 µM
- GI50 [9]: > 25 µM
- TGI [9]: > 25 µM
- GI50 [10]: > 25 µM
- TGI [10]: > 25 µM

Compound: O=[N+]([O-])c1nccn1CC(O)CN1CCCCC1 (stereo not given)
- TGI [1]: > 100 µM
- TGI [2]: > 100 µM
- TGI [3]: > 100 µM
- TGI [4]: > 100 µM
- TGI [5]: > 100 µM
- TGI [6]: > 100 µM
- TGI [7]: > 100 µM
- TGI [8]: > 100 µM
- TGI [9]: > 100 µM
- TGI [10]: > 100 µM

Compound: COc1cc2ncnc(-n3ncc4cc(NC(=O)Nc5ccc(Cl)c(Cl)c5)ccc43)c2cc1OC
- GI50 [1]: 3.06 µM
- TGI [1]: 9.84 µM
- GI50 [2]: 2.8 µM
- TGI [2]: 10.3 µM
- GI50 [3]: 1.93 µM
- TGI [3]: 4.87 µM
- GI50 [4]: 1.98 µM
- TGI [4]: 4.29 µM
- GI50 [5]: 1.65 µM
- TGI [5]: 3.58 µM
- GI50 [6]: 2.08 µM
- TGI [6]: 4.57 µM
- GI50 [7]: 2.36 µM
- TGI [7]: 6.23 µM
- GI50 [8]: 2.31 µM
- TGI [8]: 5.01 µM
- GI50 [9]: 2.26 µM
- TGI [9]: 4.76 µM
- GI50 [10]: 2.39 µM
- TGI [10]: 7.17 µM

Compound: CN1CCN(Cc2ccc(NC(=O)c3cncc(C#Cc4cnc(N)cc4C#N)c3)cc2C(F)(F)F)CC1
- GI50 [1]: 3.4 µM
- TGI [1]: 14.7 µM
- GI50 [2]: 1.43 µM
- TGI [2]: 9.85 µM
- GI50 [3]: 3.87 µM
- TGI [3]: 13.9 µM
- GI50 [4]: 1.04 µM
- TGI [4]: 15.5 µM
- GI50 [5]: 0.623 µM
- TGI [5]: 3.86 µM
- GI50 [6]: 2.66 µM
- TGI [6]: 12.7 µM
- GI50 [7]: 13.7 µM
- TGI [7]: 33.4 µM
- GI50 [8]: 1.15 µM
- TGI [8]: 3.44 µM
- GI50 [9]: 2.92 µM
- TGI [9]: 11.4 µM
- GI50 [10]: 4.42 µM
- TGI [10]: 21.1 µM

Compound: O=C(/C=C/c1ccc(C(F)(F)F)cc1)Nc1ccc(C=C2c3ccccc3C(=O)c3ccccc32)cc1
- GI50 [1]: 3.37 µM
- TGI [1]: > 100 µM
- GI50 [2]: 4 µM
- TGI [2]: > 100 µM
- GI50 [3]: 4.18 µM
- TGI [3]: > 100 µM
- GI50 [4]: 4.56 µM
- TGI [4]: > 100 µM
- GI50 [5]: 3.41 µM
- TGI [5]: 18.8 µM
- GI50 [6]: 5.48 µM
- TGI [6]: > 100 µM
- GI50 [7]: 2.86 µM
- TGI [7]: 30.9 µM
- GI50 [8]: 4.11 µM
- TGI [8]: 30.6 µM
- GI50 [9]: 4.57 µM
- TGI [9]: > 100 µM
- GI50 [10]: 3.39 µM
- TGI [10]: 56.8 µM

Compound: CCOc1ccc(/C(C=O)=C(\Cl)c2ccc(OC)cc2)cc1
- TGI [1]: > 100 µM
- TGI [2]: > 100 µM
- TGI [3]: > 100 µM
- TGI [4]: > 100 µM
- TGI [5]: > 100 µM
- TGI [6]: > 100 µM
- TGI [7]: > 100 µM
- TGI [8]: > 100 µM
- TGI [9]: > 100 µM
- TGI [10]: > 100 µM

Compound: COC(=O)C(CCC(=O)CCl)N1C(=O)c2ccccc2C1=O (stereo not given)
- TGI [1]: 35.3 µM
- TGI [2]: 14.5 µM
- TGI [3]: 15.8 µM
- TGI [4]: 27.6 µM
- TGI [5]: 14.8 µM
- TGI [6]: 29.5 µM
- TGI [7]: 29.7 µM
- TGI [8]: 21.9 µM
- TGI [9]: 15.6 µM
- TGI [10]: 26.8 µM

Compound: Cn1c(=O)c2[nH]c(SCCN3CCOCC3)nc2n(C)c1=S
- TGI [1]: > 100 µM
- TGI [2]: > 100 µM
- TGI [3]: > 100 µM
- TGI [4]: > 100 µM
- TGI [5]: > 100 µM
- TGI [6]: > 100 µM
- TGI [7]: > 100 µM
- TGI [8]: > 100 µM
- TGI [9]: > 100 µM
- TGI [10]: > 100 µM
